Test results: patent US6737383B1, “Herbicidal oxadiazolidines” (priority 1999, dated 2004)

Tests used:
bedstraw = test: Test B pre/postemergence bedstraw; type: in vivo, Galium aparine
Outline: (§1)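 Test chemicals in a non-phytotoxic solvent mixture with surfactant were sprayed preemergence onto planted seeds and postemergence onto plants 2 to 18 cm tall (1- to 4-leaf stage). After twelve to sixteen days in a greenhouse, injury was visually rated against untreated controls from 0 (no effect) to 10 (complete control).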

morningglory = test: Test B pre/postemergence morningglory; type: in vivo, Ipomoea hederacea
Outline: as §1

velvetleaf = test: Test B pre/postemergence velvetleaf; type: in vivo, Abutilon theophrasti
Outline: as §1

wild oat = test: Test B pre/postemergence wild oat; type: in vivo, Avena fatua
Outline: as §1

[1] = Preemergence, Rate 62 g/ha, scale 0 to 10 (0 no effect, 10 complete control)
[2] = Preemergence, Rate 125 g/ha, scale of 0 to 10 where 0 is no effect and 10 is complete control
[3] = Preemergence, Rate 250 g/ha, scale 0 to 10 (0 no effect, 10 complete control)
[4] = Postemergence, Rate 62 g/ha, scale 0 to 10, 0 is no effect, 10 is complete control
[5] = Postemergence, Rate 125 g/ha, scale of 0 to 10 where 0 is no effect and 10 is complete control
[6] = Postemergence, Rate 250 g/ha, scale of 0 to 10, 0 is no effect, 10 is complete control
[7] = Preemergence, Rate 500 g/ha, scale of 0 to 10 where 0 is no effect and 10 is complete control
[8] = Preemergence, Rate 62 g/ha, scale of 0 to 10 where 0 is no effect and 10 is complete control
[9] = Rate 500 g/ha, Postemergence, scale 0 to 10, 0 is no effect, 10 is complete control

SMILES	Plant response rating, Morningglory (morningglory; [4])	Morningglory plant response rating (morningglory; [6])	Morningglory plant response rating (morningglory; [2])	Plant response rating, Morningglory (morningglory; [3])	Plant response rating, Morningglory (morningglory; [7])	Plant response rating, Velvetleaf (velvetleaf; [4])	Velvetleaf plant response rating (velvetleaf; [2])	Plant response rating, Velvetleaf (velvetleaf; [3])	Plant response rating, Velvetleaf (velvetleaf; [7])	Plant response rating, Wild oats (wild oat; [4])	Wild oats plant response rating (wild oat; [2])	Plant response rating, Wild oats (wild oat; [3])	Plant response rating, Wild oats (wild oat; [7])	further results
COCCn1c(=O)on(C(=O)N(c2ccccc2)C(C)C)c1=O [Compound 631]	0	4	0	4	7	4	7	7	9	0	2	8	9	Bedstraw plant response rating (bedstraw; [1]): 0; Bedstraw plant response rating (bedstraw; [2]): 0; Plant response rating, Bedstraw (bedstraw; [3]): 0; Plant response rating, Morningglory (morningglory; [5]): 4; Plant response rating, Morningglory (morningglory; Postemergence, Rate 500 g/ha, scale of 0 to 10 where 0 is no effect and 10 is complete control): 10; Morningglory plant response rating (morningglory; [1]): 0; Plant response rating, Velvetleaf (velvetleaf; [5]): 4; Velvetleaf plant response rating (velvetleaf; [6]): 7; Velvetleaf plant response rating (velvetleaf; [1]): 6; Plant response rating, Wild oats (wild oat; [5]): 0; Wild oats plant response rating (wild oat; [6]): 1; Wild oats plant response rating (wild oat; [1]): 0
CC(C)N(C(=O)n1oc(=O)n(CCF)c1=O)c1ccc(Cl)cc1 [Compound 668]	1	4	0	0	5	0	6	7	8	0	7	8	9	Bedstraw plant response rating (bedstraw; [5]): 0; Morningglory plant response rating (morningglory; [5]): 3; Morningglory plant response rating (morningglory; [8]): 0; Morningglory plant response rating (morningglory; [9]): 4; Velvetleaf plant response rating (velvetleaf; [5]): 0; Velvetleaf plant response rating (velvetleaf; [8]): 3; Velvetleaf plant response rating (velvetleaf; [9]): 7; Wild oats plant response rating (wild oat; [5]): 0; Wild oats plant response rating (wild oat; [8]): 2; Wild oats plant response rating (wild oat; [9]): 0
